According to patent publication USRE37314E, “Pyrimidine derivatives” (Shionogi Seiyaku Kabushiki Kaisha, priority 1991, dated 2001):

Target: T1, HMG-CoA reductase (Rattus norvegicus, UniProt P51639)
T1 construct: The rat liver microsome sample (100 μl), which was preserved at -80° C; from tissue; host or cells: liver microsomes of Sprague-Dawley rats fed 2% cholestyramine
T1 sequence (P51639 1-887): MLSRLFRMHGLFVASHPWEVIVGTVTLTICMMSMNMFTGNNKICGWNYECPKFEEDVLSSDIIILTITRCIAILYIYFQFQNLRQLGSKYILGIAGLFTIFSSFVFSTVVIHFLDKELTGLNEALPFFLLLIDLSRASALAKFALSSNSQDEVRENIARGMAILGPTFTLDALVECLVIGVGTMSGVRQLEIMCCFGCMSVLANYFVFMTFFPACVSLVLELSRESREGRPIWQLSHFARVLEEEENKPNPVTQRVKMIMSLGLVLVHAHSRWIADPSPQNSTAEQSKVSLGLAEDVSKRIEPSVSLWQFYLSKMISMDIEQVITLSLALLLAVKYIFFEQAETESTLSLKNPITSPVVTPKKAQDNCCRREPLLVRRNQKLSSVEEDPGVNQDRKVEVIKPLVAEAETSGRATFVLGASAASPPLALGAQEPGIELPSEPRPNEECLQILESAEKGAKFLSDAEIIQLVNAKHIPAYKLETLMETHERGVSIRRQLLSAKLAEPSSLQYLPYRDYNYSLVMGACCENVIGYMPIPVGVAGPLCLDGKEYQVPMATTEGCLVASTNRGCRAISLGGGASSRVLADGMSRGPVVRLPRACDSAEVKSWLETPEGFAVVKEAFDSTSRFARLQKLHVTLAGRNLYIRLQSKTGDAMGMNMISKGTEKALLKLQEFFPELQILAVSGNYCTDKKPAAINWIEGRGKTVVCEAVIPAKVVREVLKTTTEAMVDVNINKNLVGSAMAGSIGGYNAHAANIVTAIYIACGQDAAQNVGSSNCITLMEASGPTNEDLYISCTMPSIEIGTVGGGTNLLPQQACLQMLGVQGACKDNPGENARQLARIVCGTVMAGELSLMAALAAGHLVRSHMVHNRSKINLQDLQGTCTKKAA
Assay: HMG-CoA reductase inhibitory effect (rat liver microsome, [14C]HMG-CoA, TLC/scintillation)
Format: biochemical
Settings: comparative activity, with activity of Mevinolin (sodium salt) as reference drug taken as 100, sodium salt of test compound, 37° C., 30 minutes
Procedure: The HMG-CoA reductase inhibitory effect
(1) Preparation of rat liver microsome
Sprague-Dawley rats, which were in free access to ordinary dietes containing 2% cholestyramine and water for 2 weeks, were used for the preparation of rat liver microsome. The thus obtained microsome was the purified according to the manner by Juroda et al., Biochem. Biophys. Act, 486, 70 (1977). The microsomal fraction obtained by centrifugation at 105,000×g was washed once with a buffered solution containing 15 mM nicotinamide and 2 mM magnesium chloride (in a 100 mM potassium phosphate buffer, pH 7.4). It was homogenized with a buffer containing nicotinamide and magnesium chloride at the same weight as the liver employed. The thus obtained homogenate was cooled down and kept at -80° C.
(2) Measurement of the HMG-CoA reductase inhibitory activities
The rat liver microsome sample (100 μl), which was preserved at -80° C., was fused at 0° C. and diluted with 0.7 ml of a cold potassium phosphate buffer (100 mM, pH7.4). This was mixed with 0.8 ml of 50 mM EDTA (buffered with the aforementioned potassium phosphate buffer) and 0.4 ml of 100 mM dithiothreitol solution (buffered with the aforementioned potassium phosphate buffer), and the mixture was kept at 0° C. The microsome solution (1.675 ml) was mixed with 670 μl of 25 mM NADPH (buffered with the aformentioned potassium phosphate buffer), and the solution was added to the solution of 0.5 mM [3^-14 ](HMG-CoA (3mCi/mmol). A solution (5 μl) of sodium salt of the test compound dissolved in potassium phosphate buffer is added to 45 μl of the mixture. The resulting mixture was incubated at 37° C. for 30 minutes and cooled. After termination of the reaction by addition of 10 μl of 2N·HCl, the mixture was incubated again at 37° C. for 15 minutes and then 30 μl of this mixture was applied to thin-layer chromatography of silica gel of 0.5 mm in thickness (Merck AG, Art 5744). The chromatograms were developed in toluene/acetone (1/1) and the spot, whose Rf value was between 0.45 to 0.60, were scraped. The obtained products were put into a vial containing 10 ml of scintillator to measure specific radio-activity with scintillation counter.

SMILES | HMG-CoA reductase inhibitory activities
CSc1nc(-c2ccc(F)cc2)c(C=CC(O)CC(O)CC(=O)O)c(C(C)C)n1 (centres unmarked) [Compound 1a-3] | 385
COc1nc(-c2ccc(F)cc2)c(C=CC(O)CC(O)CC(=O)O)c(C(C)C)n1 (centres unmarked) [Compound 1a-5] | 279
CC(C)c1nc(N(C)S(C)(=O)=O)nc(-c2ccc(F)cc2)c1C=CC(O)CC(O)CC(=O)O (single isomer, unassigned) [Compound 1a-1] | 442

Continued, values first:

HMG-CoA reductase inhibitory activities | SMILES
100 | CC[C@H](C)C(=O)O[C@H]1C[C@@H](C)C=C2C=C[C@H](C)[C@H](CC[C@@H](O)C[C@@H](O)CC(=O)O)[C@H]21 [Mevinolin Na, Mevinolin, reference compound]
260 | CC(C)c1nc(N(C)NS(C)(=O)=O)nc(-c2ccc(F)cc2)c1C=CC(O)CC(O)CC(=O)O (centres unmarked) [Compound 1a-7]
